# Measurements: publication PMC7806260, “A gustatory receptor tuned to the steroid plant hormone brassinolide in Plutella xylostella (Lepidoptera: Plutellidae)” (eLife, 2020)
# Target: T1, PxylGr34 (Plutella xylostella, UniProt A0ABQ7Q355)
# T1 construct: gene JYU34_016516; no tag or co-receptor stated
# T1 sequence (A0ABQ7Q355 1-418): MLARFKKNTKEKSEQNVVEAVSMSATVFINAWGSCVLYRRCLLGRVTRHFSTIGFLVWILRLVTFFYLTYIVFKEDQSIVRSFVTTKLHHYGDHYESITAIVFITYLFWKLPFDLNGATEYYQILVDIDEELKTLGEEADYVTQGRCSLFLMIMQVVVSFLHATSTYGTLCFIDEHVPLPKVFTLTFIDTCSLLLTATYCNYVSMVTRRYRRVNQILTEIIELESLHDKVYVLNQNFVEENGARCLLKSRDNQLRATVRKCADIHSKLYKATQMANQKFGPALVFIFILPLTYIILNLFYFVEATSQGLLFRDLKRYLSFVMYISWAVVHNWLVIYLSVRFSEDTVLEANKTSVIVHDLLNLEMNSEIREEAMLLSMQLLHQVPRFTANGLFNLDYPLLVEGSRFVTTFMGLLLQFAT
# Assay: two-electrode voltage clamp, Xenopus oocytes
# Type: cell-based
# Conditions: inward current, agonist at 10^-4 M, pH 7.5, holding potential -80 mV
SMILES,"two-electrode voltage clamp, Xenopus oocytes","two-electrode voltage clamp, Xenopus oocytes (dose series recorded)"
C=CCN=C=S [Allyl isothiocyanate],Oocytes expressing PxylGr34 showed weak responses to methyl jasmonate and allyl isothiocyanate,–
CC(C)[C@H](C)[C@@H](O)[C@H](O)[C@@H](C)[C@H]1CC[C@H]2[C@@H]3COC(=O)[C@H]4C[C@H](O)[C@H](O)C[C@]4(C)[C@H]3CC[C@]12C [Brassinolide],–,BL induced a strong response in the oocytes expressing PxylGr34
CC/C=C\C[C@H]1C(=O)CC[C@@H]1CC(=O)OC [Methyl jasmonate],Oocytes expressing PxylGr34 showed weak responses to methyl jasmonate and allyl isothiocyanate,–
